9 compounds from PubChem BioAssay (NCI) can be followed below.

Values joined by “and” are separate entries in the source; they are usually repeats but may differ in a detail not shown here. Identical values can stand only once.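 Growth conditions: 96-well plates. Treatment: test compound, 48 hours, 5 concentrations. Analysis: linear interpolation between bracketing concentrations; unreached endpoints set to highest concentration. GI50 marks 50% less growth. TGI: total growth inhibition.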 A value given as a limit tells only on which side of the number the result lay.

Test systems include SW-620 colon; HT29 colon; LOX IMVI melanoma; 786-0 renal; PC-3 prostate; CCRF-CEM leukemia; ACHN renal; U251 CNS; HOP-92 NSCLC; BT-549 breast.
Common to all, as to experiment: DTP human tumour cell line panel, 48 h

As usually defined, the GI50 is the concentration that inhibits growth by half. In general, TGI refers to the concentration at which net growth stops. A lower TGI goes with more potent growth arrest. For the compound `N=C1N=C(N)S/C1=C\c1ccc2ncccc2c1`, the GI50 in the assay on SW-620 colon, with HT29 colon, in the assay on LOX IMVI melanoma, with 786-0 renal, in the assay on PC-3 prostate and in the assay on CCRF-CEM leukemia was > 25 µM throughout. Also, the GI50 in the assay on ACHN renal, in the assay with U251 CNS, in the assay on HOP-92 NSCLC and in the assay on BT-549 breast was > 25 µM in each case. For the same compound, the TGI with SW-620 colon, in the assay with HT29 colon, in the assay with LOX IMVI melanoma, in the assay with 786-0 renal, in the assay with PC-3 prostate and in the assay on CCRF-CEM leukemia was > 25 µM each time. The TGI with ACHN renal, with U251 CNS, in the assay with HOP-92 NSCLC and with BT-549 breast was > 25 µM throughout.
As to `O=C(O)c1nnsc1-c1csnn1`, the TGI with SW-620 colon, with HT29 colon, with LOX IMVI melanoma, in the assay on 786-0 renal, in the assay with PC-3 prostate and in the assay on CCRF-CEM leukemia was > 100 µM each time. Besides, the TGI with ACHN renal, with U251 CNS, with HOP-92 NSCLC and in the assay on BT-549 breast was > 100 µM throughout.
For `CN(C)CCCN1c2ccc(O)cc2Sc2ccc(Cl)cc21`, the TGI in the assay on SW-620 colon came out at 39.6 µM; in the assay on HT29 colon, 14.7 µM; in the assay on LOX IMVI melanoma it was 20.2 µM; in the assay on 786-0 renal, 24 µM; with PC-3 prostate, 18 µM; in the assay on CCRF-CEM leukemia, 22.2 µM. Further, the TGI was 28.1 µM in the assay with ACHN renal, 21.6 µM in the assay on U251 CNS, 17.2 µM with HOP-92 NSCLC and 25.2 µM with BT-549 breast.
For the compound `Cc1[nH]c(=O)nc(N/N=C/c2ccc(Cl)cc2)c1C(=O)Nc1ccc(Cl)cc1`, the TGI in the assay on SW-620 colon is > 89.3 µM; with HT29 colon, > 100 µM; with LOX IMVI melanoma, > 90.8 µM; in the assay with 786-0 renal, 47.6 µM; in the assay with PC-3 prostate, > 100 µM; in the assay on CCRF-CEM leukemia, > 100 µM. Besides, the TGI with ACHN renal is > 89.2 µM; in the assay with U251 CNS it was 23.5 µM; with HOP-92 NSCLC it was 77.8 µM; with BT-549 breast, > 100 µM.
As for `COc1ccc2c(c1)C(=O)c1c-2n(CCCN=[N+]=[N-])c(=O)c2cc(N)ccc12`, the GI50 was > 100 µM in the assay with SW-620 colon; 47.6 µM in the assay on HT29 colon; > 100 µM in the assay on LOX IMVI melanoma; > 100 µM in the assay with 786-0 renal; > 100 µM in the assay with PC-3 prostate; > 100 µM in the assay with CCRF-CEM leukemia. The GI50 in the assay with ACHN renal was > 100 µM; with U251 CNS, > 100 µM; in the assay on HOP-92 NSCLC, 58.8 µM; in the assay on BT-549 breast, > 100 µM. Also, the TGI with SW-620 colon, in the assay with HT29 colon, with LOX IMVI melanoma, with 786-0 renal, with PC-3 prostate and in the assay with CCRF-CEM leukemia was > 100 µM in each case. Besides, the TGI in the assay on ACHN renal, in the assay with U251 CNS, in the assay on HOP-92 NSCLC and in the assay on BT-549 breast was > 100 µM throughout.
`CNC12C3C4C1C1C2C3C41C(=O)N[C@H](C(=O)N(C)[C@H](C[C@@H](OC(C)=O)c1nc(C(=O)N[C@@H](Cc2ccccc2)C[C@H](C)C(=O)OC)cs1)C(C)C)C1CC1` (some centres undefined): the 50% growth inhibitory concentration (GI50) in the assay on SW-620 colon was 0.21 µM; in the assay on HT29 colon, 0.257 µM; in the assay on LOX IMVI melanoma, 0.234 µM; in the assay with 786-0 renal, 0.577 µM; in the assay with PC-3 prostate, 0.391 µM; in the assay on CCRF-CEM leukemia, 0.318 µM. Besides, the GI50 in the assay with ACHN renal is 0.901 µM; in the assay on U251 CNS it was 0.587 µM; in the assay with HOP-92 NSCLC it was 1.8 µM; in the assay on BT-549 breast, 0.123 µM. Also, the TGI is > 15 µM in the assay with SW-620 colon; 1.28 µM in the assay on HT29 colon; > 15 µM with LOX IMVI melanoma; > 15 µM in the assay with 786-0 renal; > 15 µM in the assay on PC-3 prostate; 3.02 µM with CCRF-CEM leukemia. For the same compound, the TGI in the assay on ACHN renal is > 15 µM; with U251 CNS it was > 15 µM; in the assay on HOP-92 NSCLC, 8.93 µM; with BT-549 breast, 0.745 µM.
For `CCOC(=O)C(O)Cc1cnc2ccccc2n1` (centres undefined), the TGI with SW-620 colon, in the assay with HT29 colon, with LOX IMVI melanoma, in the assay on 786-0 renal, in the assay on PC-3 prostate and with CCRF-CEM leukemia was > 100 µM throughout. Moreover, the TGI in the assay on ACHN renal, in the assay on U251 CNS, in the assay on HOP-92 NSCLC and in the assay with BT-549 breast was > 100 µM throughout.
On to `Clc1ccc(N/N=C(\c2ccccc2)c2ccccn2)nc1`, for which the GI50 in the assay on SW-620 colon is 0.0958 µM; in the assay on HT29 colon, 0.0364 µM; in the assay with LOX IMVI melanoma, 0.246 µM; in the assay with 786-0 renal it was 0.291 µM; in the assay on PC-3 prostate it was 0.112 µM; in the assay with CCRF-CEM leukemia it was 0.0454 µM. The GI50 in the assay on ACHN renal was 0.0619 µM; in the assay on U251 CNS, 0.344 µM; in the assay with HOP-92 NSCLC, 0.445 µM; with BT-549 breast it was 0.474 µM. Further, the TGI in the assay on SW-620 colon is > 65.3 µM; in the assay on HT29 colon, > 37.2 µM and 10.8 µM; with LOX IMVI melanoma it was 4.48 µM; in the assay with 786-0 renal, 15.8 µM; in the assay on PC-3 prostate, > 67.8 µM and 28.9 µM; in the assay on ACHN renal, > 36.8 µM and 12.5 µM. Further, the TGI with U251 CNS was > 68 µM; in the assay on HOP-92 NSCLC, > 66.2 µM and 10.2 µM; in the assay on BT-549 breast, 25 µM and 29.5 µM.
`CC(=O)[O][Hg][CH2]C1(C)COC(C)([CH2][Hg][O]C(C)=O)CO1` (centres undefined): the GI50 in the assay with SW-620 colon is 1.51 µM; in the assay on HT29 colon, 6.67 µM; with LOX IMVI melanoma, 1.21 µM; in the assay on 786-0 renal it was 16.8 µM; in the assay with PC-3 prostate, 16.6 µM; in the assay with CCRF-CEM leukemia it was 0.306 µM. Also, the GI50 in the assay with ACHN renal is 1.5 µM; with U251 CNS, 1.44 µM; in the assay on HOP-92 NSCLC, 5.62 µM; in the assay with BT-549 breast, 1.76 µM. Further, the TGI in the assay on SW-620 colon was 3.11 µM; in the assay on HT29 colon, > 59.2 µM; in the assay with LOX IMVI melanoma, 2.67 µM; in the assay on 786-0 renal it was 31 µM; in the assay with PC-3 prostate, 37.5 µM; with CCRF-CEM leukemia it was 1.72 µM. Also, the total growth inhibition concentration (TGI) was found to be 2.84 µM in the assay on ACHN renal, 2.79 µM in the assay with U251 CNS, 19.1 µM with HOP-92 NSCLC and 3.64 µM with BT-549 breast.
